Test results taken from PMC8348110, “A Novel Peptide Derived from the Transmembrane Domain of Romo1 Is a Promising Candidate for Sepsis Treatment and Multidrug-Resistant Bacteria” (International Journal of Molecular Sciences, 2021).
Values after ≈ are worked out from the molar mass of the structure shown. Residues, ends and D or L forms follow the SMILES beside them.

Key:
[1] = test system: Methicillin-resistant S. aureus (MRSA) ATCC 33591; assay type: cell-based, Staphylococcus aureus; details: ATCC 33591, 1 h
Description: (§1) The minimum bactericidal concentration (MBC) was determined as previously described with minor modifications. Briefly, bacteria were cultured in the mid-log phase and diluted to 5 × 10^5 colony-forming unit (CFU)/mL in 10 mM sodium phosphate buffer (pH 7.4) with a 1% volume of TS broth. They were incubated for 1 h with various peptides which were two-fold diluted serially from 64 μg/mL to 0 μg/mL concentrations in a 96-well plate. The samples were inoculated TS agar plate and incubated overnight at 37 °C. The value of MBC was determined at the lowest concentrations at which no colonies were identified.
(§2) We used the CFU counting method to measure antibacterial activity, with all bacteria cultured to the mid-log phase in an appropriate broth medium. Bacterial CFUs were counted after overnight culture at 37 °C on TS or LB agar plates. The MBC value and antibacterial activity in blood components were determined as previously described. Mouse and human whole blood were collected and diluted with PBS (pH 7.4) to measure the ex vivo antibacterial activity of AMPR-22. For that test, AMPR-22 (10 μg) was added to each whole blood solution and incubated at 37 °C with shaking at 200 rpm. At each time point, it was incubated with bacteria (1 × 10^3 CFU) for 30 min. Each sample was inoculated on an LB agar plate, and CFU counting was performed. To measure the in vivo activity of AMPR-22, 1 × 10^8 CFU of bacteria were injected into BALB/c mice, and an hour later, 10 mg/kg of the test peptides were injected. Blood samples were collected by tail cut, serially diluted with PBS (pH 7.4), and inoculated on LB-agar plates, followed by CFU counting. To estimate the functional half-life of AMPR-22, 40 mg/kg of each tested peptide were injected into mice. Whole blood sampling was performed by cardiac puncture, and the plasma was isolated by centrifugation (2000× g, 15 min). The isolated plasma was incubated with bacteria (1 × 10^3 CFU) for an hour, and then the CFU counting method was performed.

[2] = test system: Carbapenem-resistant P. aeruginosa (CRPA), clinical isolate; assay type: cell-based, Pseudomonas aeruginosa; details: 1 h
Text: Acinetobacter baumannii (ATCC 19606), B. subtilis (ATCC 6633), E. aerogenes (ATCC 13048), E. coli (ATCC 25922), E. faecalis (ATCC 19433), E. faecium (ATCC 19434), K. pneumoniae (ATCC 13883), P. aeruginosa (ATCC 27853), S. aureus (ATCC 29213), S. sindenensis (ATCC 23963), and MRSA (ATCC 33591) were purchased from the American Type Culture Collection (ATCC; Gaithersburg, MD, USA). Streptococcus pneumoniae (NCCP 14585), vancomycin-resistant E. faecium (NCCP 11522), and vancomycin-resistant S. aureus (NCCP 15872) were purchased from the National Culture Collection for Pathogens (NCCP; Cheongju, Korea). The isolation and use of carbapenem-resistant bacterial strains from a patient were approved (2015AN0129) by the Institutional Review Board (IRB) of Korea University Hospital. CRPA, CRKP, and CRAB were clinically isolated in Korea University Hospital (Seoul, Korea). CRPA was confirmed to be resistant to piperacillin, piperacillin-tazobactam, ceftazidime, imipenem, meropenem, gentamicin, amikacin, and ciprofloxacin. CRAB was confirmed to be resistant to piperacillin, piperacillin-tazobactam, cefepime, ceftazidime, imipenem, meropenem, gentamicin, amikacin, and ciprofloxacin. CRKP was confirmed to be resistant to piperacillin-tazobactam, cefepime, ceftazidime, imipenem, gentamicin, and ciprofloxacin. All strains were stored at –80 °C in 50% glycerol and 50% Luria-Bertani (LB) or tryptic soy (TS) broth, grown on LB or TS plates, and aerated at 37 °C.
as §1, §2

[3] = test system: Pseudomonas aeruginosa ATCC 27853; assay type: cell-based; details: ATCC 27853, 1 h
Description: as §1, §2

[4] = test system: Staphylococcus aureus ATCC 29213; assay type: cell-based; details: ATCC 29213, 1 h, pH 7.4
Description: as §1, §2

Row | Structure (SMILES) | MBC Value, MRSA [1] [µg/mL] | MBC Value, CRPA [2] [µg/mL] | MBC Value, P. aeruginosa [3] [µg/mL] | MBC Value, S. aureus [4] [µg/mL]
1 | CC[C@H](C)[C@H](NC(=O)CNC(=O)[C@H](CCSC)NC(=O)CNC(=O)[C@@H](NC(=O)[C@H](C)NC(=O)[C@H](CCSC)NC(=O)[C@H](Cc1ccccc1)NC(=O)[C@@H](NC(=O)CNC(=O)[C@H](Cc1ccccc1)NC(=O)[C@@H](NC(=O)CNC(=O)CNC(=O)[C@H](CO)NC(=O)[C@H](CCCCN)NC(=O)[C@H](CCSC)NC(=O)[C@H](CCSC)NC(=O)[C@H](CCCCN)NC(=O)[C@@H](N)CCCCN)[C@@H](C)O)[C@@H](C)O)[C@@H](C)CC)C(=O)N[C@@H](CCCNC(=N)N)C(=O)O [K2] (H-KKMMKSGGTFGTFMAIGMGIR-OH) | 64 (≈ 28.4 µM) | 16 (≈ 7.11 µM) | 16 (≈ 7.11 µM) | 32 (≈ 14.2 µM)
2 | CC[C@H](C)[C@H](NC(=O)CNC(=O)[C@H](CCSC)NC(=O)CNC(=O)[C@@H](NC(=O)[C@H](C)NC(=O)[C@H](CCSC)NC(=O)[C@H](Cc1ccccc1)NC(=O)[C@@H](NC(=O)CNC(=O)[C@H](Cc1ccccc1)NC(=O)[C@@H](NC(=O)CNC(=O)CNC(=O)[C@H](CCCCN)NC(=O)[C@H](CCCCN)NC(=O)[C@H](CCSC)NC(=O)[C@H](CCSC)NC(=O)[C@H](CCCCN)NC(=O)[C@@H](N)CCCCN)[C@@H](C)O)[C@@H](C)O)[C@@H](C)CC)C(=O)N[C@@H](CCCNC(=N)N)C(=O)O [K3] (H-KKMMKKGGTFGTFMAIGMGIR-OH) | 32 (≈ 14 µM) | 8 (≈ 3.49 µM) | 8 (≈ 3.49 µM) | 16 (≈ 6.98 µM)
3 | CC[C@H](C)[C@H](NC(=O)CNC(=O)[C@H](CCSC)NC(=O)CNC(=O)[C@@H](NC(=O)[C@H](C)NC(=O)[C@H](CCSC)NC(=O)[C@H](Cc1ccccc1)NC(=O)[C@@H](NC(=O)CNC(=O)[C@H](Cc1ccccc1)NC(=O)[C@H](CCCCN)NC(=O)CNC(=O)CNC(=O)[C@H](CCCCN)NC(=O)[C@H](CCCCN)NC(=O)[C@H](CCSC)NC(=O)[C@H](CCSC)NC(=O)[C@@H](N)CCCCN)[C@@H](C)O)[C@@H](C)CC)C(=O)N[C@@H](CCCNC(=N)N)C(=O)O [d58K] (H-KMMKKGGKFGTFMAIGMGIR-OH) | 2 (≈ 0.913 µM) | 8 (≈ 3.65 µM) | 2 (≈ 0.913 µM) | 8 (≈ 3.65 µM)
4 | CC[C@H](C)[C@H](NC(=O)CNC(=O)[C@H](CCSC)NC(=O)CNC(=O)[C@@H](NC(=O)[C@H](C)NC(=O)[C@H](CCSC)NC(=O)[C@@H](NC(=O)CNC(=O)[C@H](Cc1ccccc1)NC(=O)[C@H](CCCCN)NC(=O)CNC(=O)CNC(=O)[C@H](CCCCN)NC(=O)[C@H](CCCCN)NC(=O)[C@H](CCSC)NC(=O)[C@H](CCSC)NC(=O)[C@H](CCCCN)NC(=O)[C@@H](N)CCCCN)[C@@H](C)O)[C@@H](C)CC)C(=O)N[C@@H](CCCNC(=N)N)C(=O)O [d70F] (H-KKMMKKGGKFGTMAIGMGIR-OH) | 128 (≈ 59 µM) | >256 | 128 (≈ 59 µM) | 
5 | CC[C@H](C)[C@H](NC(=O)CNC(=O)[C@H](CCSC)NC(=O)CNC(=O)[C@H](C)NC(=O)[C@H](CCSC)NC(=O)[C@H](Cc1ccccc1)NC(=O)[C@@H](NC(=O)CNC(=O)[C@H](Cc1ccccc1)NC(=O)[C@H](CCCCN)NC(=O)CNC(=O)CNC(=O)[C@H](CCCCN)NC(=O)[C@H](CCCCN)NC(=O)[C@H](CCSC)NC(=O)[C@H](CCSC)NC(=O)[C@H](CCCCN)NC(=O)[C@@H](N)CCCCN)[C@@H](C)O)C(=O)N[C@@H](CCCNC(=N)N)C(=O)O [d73I] (H-KKMMKKGGKFGTFMAGMGIR-OH) | >256 | >256 | >256 | 
